Measurements published in US9006269B2, “Azetidine derivatives” (Vernalis (R&D) Ltd., priority 2008, dated 2015).
Values belong to the molecule of their own block, whether it stands above or below them.

Tests used:
[1] = target: rat FAAH protein (30-579) (Rattus norvegicus (Rat), UniProt P97612); assay: Rat FAAH inhibition assay (AAMCA fluorescence); type: biochemical; details: 3-hour pre-incubation with compound, 120 nM FAAH; read-out: FAAH Rat IC50 (nM) 180 minutes
Source text: Rat FAAH Inhibition Assay
Active rat FAAH protein (30-579) was isolated as described in the literature. The coding sequence of amino acids 30-579 of rat FAAH were cloned into the expression vector pET28a to provide an N-terminal His-tag. Following expression, the His-tagged FAAH′ (30-579) was isolated using a method based on Patricelli et al., 1998; Biochemistry vol 37, p 15177 with a combination of chelating sepharose, heparin sepharose and size exclusion chromatography.
FAAH activity was determined by measuring the liberation of the highly fluorescent 7-amino, 4-methyl Coumarin (AMC) generated during hydrolysis of the substrate Arachidonoyl 7-Amino, 4-methyl Coumarin Amide (AAMCA) by FAAH. Inhibition of FAAH activity was determined as a percentage reduction of the fluorescence determined in the absence of compound.
The assay was carried out in black-walled, clear bottom, 384-well plates. 27.5 μl of FAAH protein (in FAAH assay buffer: 50 mM Hepes, 0.01% Triton X-100, 1 mM EDTA, 0.5 mg/ml BSA (fatty-acid-free), pH 8.2) was pre-incubated, at 120 nM, with increasing concentrations of compounds (2.5 μl in 100% DMSO) for 0, 1 or 3 hours at room temperature. 2.5 μl of DMSO was added for ‘total’ controls (100% FAAH activity) and 2.5 μl of URB-597, a known inhibitor of FAAH activity, (at a final, saturating, concentration of 10 μM) was used for ‘non-specific’ controls (0% FAAH activity). 20 μl of 7.5 μM AAMCA substrate (in FAAH assay buffer) was then added to all wells and incubated at room temperature for a further 1.5 hours. Fluorescence was determined at an excitation wavelength of 355 nm and an emission wavelength of 460 nm using a Flexstation plate reader (Molecular Devices, UK). Inhibition of FAAH activity, by the compounds, was determined as the percentage reduction in relative fluorescence units (RFU) compared to the ‘total’ controls (in the absence of compound) minus the ‘non-specific’ controls. IC50 values were determined, from 10-point dose response curves, in XL-Fit using a 4-Parameter Logistic Model (Sigmoidal Dose-Response Model).
The following Table 1 provides the 3-hour incubation results of testing the compounds of Examples 1-4 herein in the above rat FAAH inhibition assay.

human FAAH 1 = human FAAH 1 (Homo sapiens (Human), UniProt O00519); assay: Human FAAH 1 assay (AAMCA fluorescence); type: biochemical; details: 1 hour pre-incubation with compound, 10 nM FAAH; read-out: FAAH Human IC50 (nM) 60 minutes (n = 2)
Chain of human FAAH 1 (O00519 whole entry): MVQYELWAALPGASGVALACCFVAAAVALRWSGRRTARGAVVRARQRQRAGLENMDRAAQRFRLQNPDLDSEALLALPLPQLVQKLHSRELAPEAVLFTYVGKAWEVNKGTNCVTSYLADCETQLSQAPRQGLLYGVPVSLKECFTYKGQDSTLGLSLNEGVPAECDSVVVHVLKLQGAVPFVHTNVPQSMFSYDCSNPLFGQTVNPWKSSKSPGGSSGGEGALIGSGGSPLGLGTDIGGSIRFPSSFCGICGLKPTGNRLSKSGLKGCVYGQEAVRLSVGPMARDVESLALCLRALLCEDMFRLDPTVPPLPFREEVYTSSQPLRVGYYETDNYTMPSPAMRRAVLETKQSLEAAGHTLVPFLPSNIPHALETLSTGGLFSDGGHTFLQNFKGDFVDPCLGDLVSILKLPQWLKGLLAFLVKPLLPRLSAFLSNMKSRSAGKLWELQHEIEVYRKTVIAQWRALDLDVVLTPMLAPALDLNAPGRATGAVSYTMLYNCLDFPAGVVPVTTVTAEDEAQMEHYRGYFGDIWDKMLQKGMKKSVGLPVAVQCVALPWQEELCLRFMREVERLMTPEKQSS
Protocol: Part B Human FAAH 1 Assay
Human FAAH 1 activity was determined by measuring the liberation of the highly fluorescent 7-amino, 4-methyl Coumarin (AMC) generated during hydrolysis of the substrate arachidonoyl 7-amino, 4-methyl coumarin amide (AAMCA) by FAAH. Inhibition of human FAAH 1 activity was determined as a percentage reduction of the fluorescence determined in the absence of compound.
The assay was carried out in black-walled, clear bottom, 384-well plates. 27.5 μl of human FAAH 1 protein (in FAAH assay buffer: 50 mM Hepes, 0.01% Triton X-100, 1 mM EDTA, 0.5 mg/ml BSA (fatty-acid-free), pH 8.2) was pre-incubated, at 10 nM, with increasing concentrations of compounds (2.5 μl in 100% DMSO) for 1 hour at room temperature. 2.5 μl of DMSO was added for ‘total’ controls (100% FAAH activity) and 2.5 μl of URB-597, a known inhibitor of FAAH activity, (at a final, saturating, concentration of […]) was used for ‘non-specific’ controls (0 FAAH activity). 20 μl of 7.5 μM AAMCA substrate (in FAAH assay buffer) was then added to all wells and incubated at room temperature for a further 4 hours. Fluorescence was determined at an excitation wavelength of 355 nm and an emission wavelength of 460 nm using a Flexstation plate reader (Molecular Devices, UK). Inhibition of human FAAH 1 activity, by the compounds, was determined as the percentage reduction in relative fluorescence units (RFU) compared to the ‘total’ controls (in the absence of compound) minus the ‘non-specific’ controls. IC50 values were determined, from 10-point dose response curves, in XL-Fit using a 4-Parameter Logistic Model (Sigmoidal Dose-Response Model).

FAAH = FAAH (Homo sapiens (Human), UniProt O00519); assay: Intrinsic FAAH inhibitory potency (summary statement); type: biochemical; details: qualitative statement
Chain of FAAH (O00519 whole entry): as above

[2] = Plasma concentrations after oral administration in laboratory rats; type: in vivo, rat
[3] = test system: carrageenan-induced thermal hypersensitivity; assay: Rat carrageenan induced thermal hyperalgesia model of inflammatory pain; type: in vivo
Protocol: Part C Rat Carrageenan Induced Thermal Hyperalgesia Model of Inflammatory Pain.
Male Wistar rats were assessed for thermal pain sensitivity by applying a focused light beam onto the hind paws and recording the time to paw withdrawal, before and after local intraplantar administration of carrageenan. After 3 h, thermal pain sensitivity was reassessed in treated and untreated hind paws prior to dosing with test compound or vehicle. Indomethacin was administered as a positive control.
Male Sprague Dawley rats were tail-marked, and acclimatised to the plantar boxes on 3 separate occasions (6, 5 and 1 day prior to the test day) for at least 5 min on each occasion. On the pre-test day, the rats were habituated to the test room for at least 30 min prior to testing. The rats were put into the Hargreaves plantar boxes, allowed to settle down for approx 3-5 min, and challenged with the mobile radiant heat source. The latency to withdraw both left and right hindpaws from the heat source was determined on 2 occasions (3 min apart). The mean across the 2 challenges was recorded as the baseline for each animal. Rats 18 and 30 were not used in the study as they had very high baseline readings, and they were replaced by 61 and 63. Rats were then allocated to drug treatments ensuring the baseline latencies were balanced across groups.
On the test day, rats received intraplantar carrageenan lambda (100 uL of 1% in saline), or saline in right hindpaw 3 hours before testing. Four hours before testing, rats received VER-158416 (1, 3, or 10 mg/kg) or vehicle (5% EtOH: 95% (1% methylcellulose in water) p.o. Subsequently, 30 min before testing, rats received a second injection of either indomethacin 10 mg/kg or vehicle (50% 0.1M Na2CO3: 47.5% phosphate buffered saline (PBS): 2.5% 1M HCl) i.p. At the scheduled test time following drug treatment, the latency to withdraw the paw from the radiant heat source was reassessed by a single reading.
For example, the compound of Example 13 above was tested as follows:
Rats were dosed with intraplantar carrageenan at t=0; the compound of Example 13 (1, 3 & 10 mg/kg po) or vehicle (5% EtOH: 95% (1% methylcellulose in water) at t=2 h; indomethacin (10 mg/kg ip) or vehicle at t=2.5 h and thermal sensitivity was measured at t=3 h. Thus all rats received both oral and ip dosing.

Chain of rat FAAH protein (30-579) (P97612 30-579): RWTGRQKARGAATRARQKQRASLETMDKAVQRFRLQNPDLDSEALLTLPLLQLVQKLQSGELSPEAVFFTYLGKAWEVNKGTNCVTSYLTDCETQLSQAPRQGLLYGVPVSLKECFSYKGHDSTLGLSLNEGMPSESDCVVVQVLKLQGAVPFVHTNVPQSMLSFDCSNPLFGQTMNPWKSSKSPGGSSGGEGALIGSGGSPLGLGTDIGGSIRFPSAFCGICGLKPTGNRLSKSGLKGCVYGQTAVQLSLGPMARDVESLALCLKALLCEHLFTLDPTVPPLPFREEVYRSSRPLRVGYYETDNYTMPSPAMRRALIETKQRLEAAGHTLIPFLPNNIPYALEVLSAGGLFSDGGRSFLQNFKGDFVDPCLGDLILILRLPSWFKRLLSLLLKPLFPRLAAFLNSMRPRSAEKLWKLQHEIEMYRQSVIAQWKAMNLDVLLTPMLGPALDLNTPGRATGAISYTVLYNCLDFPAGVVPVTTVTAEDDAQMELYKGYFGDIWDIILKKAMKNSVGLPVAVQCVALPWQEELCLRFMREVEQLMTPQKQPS

IC50 (human FAAH 1): 19 nM
Structure (SMILES): COCCOc1ccc(OC)c(-c2ccc(OC3CN(C(=O)Nc4cccnn4)C3)nc2)c1 [Example 11, 3-{5-[2-Methoxy-5-(2-methoxy-ethoxy)-phenyl]-pyridin-2-yloxy}-azetidine-1-carboxylic acid pyridazin-3-ylamide]

intrinsic-FAAH inhibitory potency (FAAH): good
plasma concentrations after oral administration [2]: high and prolonged
IC50 (human FAAH 1): 38 nM
Structure (SMILES): O=C(Nc1cccnn1)N1CC(Oc2ccc(-c3ccccc3)cn2)C1 [Example 13, 3-(5-Phenyl-pyridin-2-yloxy)-azetidine-1-carboxylic acid pyridazin-3-ylamide]
effect on contralateral paw sensitivities to thermal pain ([3]; 1, 3, 10 mg/kg p.o., rat): no effect
inhibition of carrageenan-induced thermal hypersensitivity ([3]; 1, 3, 10 mg/kg p.o., rat): dose-related inhibition
reduction of pain sensitivity to below normal levels ([3]; 1, 3, 10 mg/kg p.o., rat): did not reduce pain sensitivity to below normal levels
statistical significance of inhibition vs vehicle/carrageenan group ([3]; at 3 and 10 mg/kg doses p.o., one way ANOVA, Newman-Keuls): reached statistical significance

IC50 (human FAAH 1): 42 nM
Structure (SMILES): O=C(Nc1cnccn1)N1CC(Oc2ccc(-c3ccccc3F)cn2)C1 [Example 16, 3-[5-(2-Fluoro-phenyl]-pyridin-2-yloxy]-azetidine-1-carboxylic acid pyrazin-2-ylamide]

IC50 (human FAAH 1): 12 nM
Structure (SMILES): COc1ccc(OC)c(-c2ccc(OC3CN(C(=O)Nc4cccnn4)C3)nc2)c1 [Example 12, 3-[5-(2,5-Dimethoxy-phenyl)-pyridin-2-yloxy]-azetidine-1-carboxylic acid pyridazin-3-ylamide]

plasma concentrations after oral administration [2]: high and prolonged
Structure (SMILES): COc1ccccc1-c1ccc(OC2CN(C(=O)Nc3cccnn3)C2)nc1 [Example 17, 3-[5-(2-Methoxy-phenyl)-pyridin-2-yloxy]-azetidine-1-carboxylic acid pyridazin-3-ylamine]

IC50 (human FAAH 1): 26 nM
Structure (SMILES): COc1cccc(-c2ccc(OC3CN(C(=O)Nc4cccnn4)C3)nc2)c1F [Example 19, 3-[5-(2-Fluoro-3-methoxy-phenyl)-pyridin-2-yloxy]-azetidine-1-carboxylic acid pyridazin-3-ylamide]

IC50 (human FAAH 1): 7 nM
Structure (SMILES): COCCOc1ccc(Cl)c(-c2ccc(OC3CN(C(=O)Nc4cccnn4)C3)nc2)c1 [Example 15, 3-{5-[2-Chloro-5-(2-methoxy-ethoxy)-phenyl]-pyridin-2-yloxy}-azetidine-1-carboxylic acid pyridazin-3-yl-amide]

Second part, the molecule before the results:

Structure (SMILES): O=C(Nc1ccccc1F)N1CC(Oc2ccc(-c3ccccc3)cc2)C1 [Example 3, 3-(Biphenyl-4-yloxy)-azetidine-1-carboxylic acid (2-fluoro-phenyl)-amide]
IC50 [1]: 77 nM

Structure (SMILES): O=C(Nc1cccnn1)N1CC(Oc2ccc(-c3c(F)cccc3F)cn2)C1 [Example 14, 3-[5-(2,6-Difluoro-phenyl)-pyridin-2-yloxy]-azetidine-1-carboxylic acid pyridazin-3-ylamide]
IC50 (human FAAH 1): 14 nM

Structure (SMILES): O=C(Nc1cccnn1)N1CC(Oc2ccc(-c3cccc(OCCOCc4ccccc4)c3)cn2)C1 [Example 9, 3-{5-[3-(2-Benzyloxy-ethoxy)-phenyl]-pyridin-2-yloxy}-azetidine-1-carboxylic acid pyridazin-3-ylamide]
IC50 (human FAAH 1): 3 nM

Structure (SMILES): O=C(Nc1cccnc1)N1CC(Oc2ccc(-c3ccccc3)cc2)C1 [Example 4, 3-(Biphenyl-4-yloxy)-azetidine-1-carboxylic acid pyridin-3-ylamide]
intrinsic-FAAH inhibitory potency (FAAH): good
plasma concentrations after oral administration [2]: high and prolonged
IC50 [1]: 67 nM

Structure (SMILES): O=C(Nc1cccc(F)c1)N1CC(Oc2ccc(-c3ccccc3)cc2)C1 [Example 2, 3-(Biphenyl-4-yloxy)-azetidine-1-carboxylic acid (3-fluoro-phenyl)-amide]
IC50 [1]: 279 nM

Structure (SMILES): O=C(Nc1cccnn1)N1CC(Oc2ccc(-c3ccccc3F)cn2)C1 [Example 18, 3-[5-(2-Fluoro-phenyl)-pyridin-2-yloxy]-azetidine-1-carboxylic acid pyridazin-3-ylamide]
intrinsic-FAAH inhibitory potency (FAAH): good
plasma concentrations after oral administration [2]: high and prolonged
IC50 (human FAAH 1): 16 nM

Structure (SMILES): COCCOc1cccc(-c2ccc(OC3CN(C(=O)Nc4cnccn4)C3)nc2)c1 [Example 6, 3-{5-[3-(2-Methoxy-ethoxy)-phenyl]-pyridin-2-yloxy}-azetidine-1-carboxylic acid pyrazin-2-ylamide]
IC50 (human FAAH 1): 73 nM

Structure (SMILES): COCCOc1cccc(-c2ccc(OC3CN(C(=O)Nc4cccnc4)C3)nc2)c1 [Example 8, 3-{5-[3-(2-Methoxy-ethoxy)-phenyl]-pyridin-2-yloxy}-azetidine-1-carboxylic acid pyridin-3-ylamide]
IC50 (human FAAH 1): 18 nM

Structure (SMILES): COCCOc1cccc(-c2ccc(OC3CN(C(=O)Nc4cccnn4)C3)nc2)c1 [Example 7, 3-{5-[3-(2-Methoxy-ethoxy)-phenyl]-pyridin-2-yloxy}-azetidine-1-carboxylic acid pyridazin-3-ylamide]
intrinsic-FAAH inhibitory potency (FAAH): good
plasma concentrations after oral administration [2]: high and prolonged
IC50 (human FAAH 1): 19 nM

Structure (SMILES): O=C(Nc1ccccc1)N1CC(Oc2ccc(-c3ccccc3)cc2)C1 [Example 1, 3-(biphenyl-4-yloxy)-azetidine-1-carboxylic acid phenylamide]
IC50 [1]: 135 nM

Structure (SMILES): COCCOc1cccc(-c2ccc(OC3CN(C(=O)Nc4ccncn4)C3)nc2)c1 [Example 5, 3-{5-[3-(2-Methoxy-ethoxy)-phenyl]-pyridin-2-yloxy}-azetidine-1-carboxylic acid pyrimidin-4-ylamide]
IC50 (human FAAH 1): 9 nM

Structure (SMILES): O=C(Nc1cccnn1)N1CC(Oc2ccc(-c3cccc(OCCO)c3)cn2)C1 [Example 10, 3-{5-[3-(2-Hydroxy-ethoxy)-phenyl]-pyridin-2-yloxy}-azetidine-1-carboxylic acid pyridazin-3-ylamide]
IC50 (human FAAH 1): 49 nM
